The source of these data is PMC6710349, “Action of Dicumarol on Glucosamine-1-Phosphate Acetyltransferase of GlmU and Mycobacterium tuberculosis” (Frontiers in Microbiology, 2019).

This assay concerns the target GlmU (glucosamine-1-phosphate acetyltransferase / N-acetylglucosamine-1-phosphate uridyltransferase) (Mycobacterium tuberculosis, UniProt P9WMN3). In words: DTNB colorimetric acetyltransferase assay, with Lineweaver-Burk kinetics. Format: biochemical.

For orientation: IC50 means the concentration at which inhibition is half-maximal. A low value points to inhibition by little substance.

Structures are written as SMILES.

Sequence of GlmU (glucosamine-1-phosphate acetyltransferase / N-acetylglucosamine-1-phosphate uridyltransferase) (P9WMN3 2-495 limits assumed): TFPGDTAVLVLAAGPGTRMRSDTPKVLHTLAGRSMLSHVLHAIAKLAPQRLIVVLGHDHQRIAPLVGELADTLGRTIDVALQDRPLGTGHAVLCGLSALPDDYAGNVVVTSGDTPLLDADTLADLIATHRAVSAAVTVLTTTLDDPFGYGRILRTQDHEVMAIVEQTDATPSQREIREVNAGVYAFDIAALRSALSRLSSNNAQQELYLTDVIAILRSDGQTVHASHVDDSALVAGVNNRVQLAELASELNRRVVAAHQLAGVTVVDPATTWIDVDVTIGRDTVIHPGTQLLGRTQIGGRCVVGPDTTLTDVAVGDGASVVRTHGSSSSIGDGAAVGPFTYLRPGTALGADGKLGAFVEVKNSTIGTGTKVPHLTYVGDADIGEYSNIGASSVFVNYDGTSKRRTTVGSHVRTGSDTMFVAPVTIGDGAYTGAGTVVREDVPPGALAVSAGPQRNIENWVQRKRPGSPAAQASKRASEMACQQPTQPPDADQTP

Consider `O=c1oc2ccccc2c(O)c1Cc1c(O)c2ccccc2oc1=O` [compound 22, 3,3′-methylene-bis-4-hydroxycoumarin], for which half-maximal inhibition (IC50) required 13.7 µM.
